# According to US11225503B2, “Crystobactamides” (HELMHOLTZ-ZENTRUM FÜR INFEKTIONSFORSCHUNG GMBH, priority 2013, dated 2022):
# Where two headings read alike, the source gives them in different places.
# Tests used:
# Pichia anomala DSM-6766 = assay: Susceptibility testing, MIC microdilution; format: cell-based; settings: Hansenula anomala, DSM6766
# Method in brief: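 MIC read visually as the lowest compound concentration preventing visible growth. Overnight cultures diluted to 10^4-10^6 cfu/mL; E. faecalis grown in TSB, yeast in Myc medium with 50 mM HEPES, E. coli in Müller-Hinton broth; plates shaken 750 rpm at 30-37° C. for 18-48 h.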
# [1] = test system: Pseudomonas aeruginosa PA14; assay: Susceptibility testing, MIC microdilution; format: cell-based
# [2] = test system: Acinetobacter baumannii DSM-30008; assay: Susceptibility testing, MIC microdilution; format: cell-based; settings: Acinetobacter baumannii, DSM30008
# Method in brief: (§1)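 Broth microdilution in duplicate serial dilutions; inoculum 10^4-10^6 cfu/mL from overnight cultures. E. coli strains in Müller-Hinton broth (pH 7.4), E. faecalis in tryptic soy broth (pH 7.3), C. albicans in Myc medium (pH 7.0). Shaken at 750 rpm, 30-37° C., 18-48 h; MIC = lowest concentration without visible growth.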
# [3] = test system: Escherichia coli DSM-12242 (NAL^R); assay: Susceptibility testing, MIC microdilution; format: cell-based; settings: Escherichia coli, DSM12242
# Method in brief: as §1
# [4] = test system: Escherichia coli ATCC25922; assay: Susceptibility testing, MIC microdilution; format: cell-based
# Method in brief: as §1
# [5] = test system: Enterococcus faecalis ATCC29212; assay: Susceptibility testing, MIC microdilution; format: cell-based
# Method in brief: as §1
# [6] = test system: Candida albicans DSM-1665; assay: Susceptibility testing, MIC microdilution; format: cell-based; settings: Candida albicans, DSM1665
# Method in brief: as §1
# [7] = test system: Escherichia coli ATCC35218; assay: Susceptibility testing, MIC microdilution; format: cell-based
# Method in brief: as §1
# [8] = test system: Klebsiella pneumoniae DSM-30104; assay: Susceptibility testing, MIC microdilution; format: cell-based; settings: Klebsiella pneumoniae, DSM30104
# [9] = test system: Micrococcus luteus DSM-1790; assay: Susceptibility testing, MIC microdilution; format: cell-based; settings: Micrococcus luteus, DSM1790
# Method in brief: as §1
# Bacillus subtilis DSM-10 = assay: Susceptibility testing, MIC microdilution; format: cell-based; settings: Bacillus subtilis, DSM10
# [10] = test system: Staphylococcus aureus ATCC29213; assay: Susceptibility testing, MIC microdilution; format: cell-based
# [11] = test system: E. coli strain WT III (marR Δ74 bp); assay: Susceptibility of mutant E. coli strains, MIC; format: cell-based; settings: Escherichia coli
# Experimental: Bacterial wildtype strains used in susceptibility assays were either part of our strain collection or purchased from the German Collection of Microorganisms and Cell Cultures (DSMZ) or from the American Type Culture Collection (ATCC). E. coli strain WT^[6] and E. coli mutants were kindly provided by Prof. Dr. P. Heisig, Pharmaceutical Biology and Microbiology, University of Hamburg.
# (§2) MIC values were determined in microdilution assays. Overnight cultures were diluted in the appropriate growth medium to achieve an inoculum of 10^4-10^6 cfu/mL. Yeasts were grown in Myc medium (1% phytone peptone, 1% glucose, 50 mM HEPES, pH 7.0), S. pneumonia and E. faecalis in tryptic soy broth (TSB: 1.7% peptone casein, 0.3% peptone soymeal, 0.25% glucose, 0.5% NaCl, 0.25% K2HPO4; pH 7.3); M. smegmatis in Middlebrook 7H9 medium supplemented with 10% Middlebrook ADC enrichment and 2 ml/l glycerol). All other listed bacteria were grown in Müller-Hinton broth (0.2% beef infusion solids, 1.75% casein hydrolysate, 0.15% starch, pH 7.4). Cystobactamides and reference drugs were added directly to the cultures in sterile 96-well plates as duplicates and serial dilutions were prepared. Microorganisms were grown on a microplate shaker (750 rpm, 30-37° C., 18-48 h), except S. pneumonia, which was grown at non-shaking conditions (37° C., 5% CO2, 18 h). Growth inhibition was assessed by visual inspection and the MIC was defined as the lowest concentration of compound that inhibited visible growth.
# E. coli topoisomerase IV = molecular target: T1, E. coli topoisomerase IV (Escherichia coli, UniProt P0AFI2+P20083); assay: Topoisomerase IV relaxation (inhibition) assay; format: biochemical
# T1 construct: purchased Inspiralis (Norwich, UK)
# Experimental: Prokaryotic DNA gyrase and topoisomerase IV share a high degree of homology and gyrase inhibitors typically show a topoisomerase IV inhibitory activity.^8 To test the influence of the cystobactamides on topoisomerase IV a commercial E. coli topoisomerase IV kit (Inspiralis) was used.
# The topo IV reactions were titrated with varying concentrations of A-D and resolved by agarose gel electrophoresis. For IC50 determination the band intensity of the supercoiled plasmid was determined using Adobe Photoshop, plotted vs. [cystobactamide] and fitted using Hill's equation.
# (§3) Following natural product concentrations were used in the assay:
# Control reactions were: no enzyme and a standard reaction in presence of 5% (v/v) DMSO. All reaction samples were equilibrated for 10 minutes at room-temperature in the absence of DNA. Then the relaxed plasmid was added to start the reaction.
# To determine IC50 values, the formation of supercoiled (gyrase) or relaxed (topoisomerase I, II IV) plasmid was quantified using Adobe Photoshop (Histogram mode). Plotting of these values versus the compound concentration yielded sigmoidal shaped curves, which were fitted using Hill's equation (Origin Pro 8.5). All determined IC50 values are the averages of three independent experiments.
# [12] = test system: several microorganisms and cell lines; assay: Biological evaluation, summary statements over the MIC and cytotoxicity tests; format: cell-based
# Experimental: Cells were seeded at 6×10^3 cells per well of 96-well plates (Corning CellBind®) in complete medium (180 μl) and directly treated with cystobactamides dissolved in methanol in a serial dilution. Compound were tested in duplicate for 5 d, as well as the internal solvent control. After 5 d incubation, 5 mg/ml MTT in PBS (20 μL) was added per well and it was further incubated for 2 h at 37° C.[7] The medium was then discarded and cells were washed with PBS (100 μl) before adding 2-propanol/10N HCl (250:1, v/v; 100 μl) in order to dissolve formazan granules. The absorbance at 570 nm was measured using a microplate reader (EL808, Bio-Tek Instruments Inc.).
# as §2
# E. coli gyrase = molecular target: T2, E. coli gyrase (Escherichia coli, UniProt P0AES4+P0AES6); assay: Gyrase supercoiling (inhibition) assay; format: biochemical
# T2 construct: purchased Inspiralis (Norwich, UK)
# Experimental: To test the anti-gyrase activity of cystobactamides, commercial E. coli gyrase supercoiling kits (Inspiralis) were used.
# For IC50 determination the band intensity of the supercoiled plasmid was determined using Adobe Photoshop, plotted vs. [cystobactamide] and fitted using Hill's equation.
# All natural products stock solutions and dilutions were prepared in 100% DMSO and added to the supercoiling reactions giving a final DMSO concentration of 5% (v/v).
# as §3
# Control reactions were: no enzyme and a standard reaction in presence of 5% (v/v) DMSO.
# All reaction samples were equilibrated for 10 minutes at room-temperature in the absence of DNA. Then the relaxed plasmid was added to start the reaction.
# To determine IC50 values, the formation of supercoiled (gyrase) or relaxed (topoisomerase I, II IV) plasmid was quantified using Adobe Photoshop (Histogram mode). […] All determined IC50 values are the averages of three independent experiments.
# [13] = IC50 in the Gyrase inhibition assay, table, averages of three independent experiments
# [14] = apparent IC50, E. coli gyrase, E. coli gyrase 20.5 nM eq. 1 unit
# T1 sequence (P20083 whole entry): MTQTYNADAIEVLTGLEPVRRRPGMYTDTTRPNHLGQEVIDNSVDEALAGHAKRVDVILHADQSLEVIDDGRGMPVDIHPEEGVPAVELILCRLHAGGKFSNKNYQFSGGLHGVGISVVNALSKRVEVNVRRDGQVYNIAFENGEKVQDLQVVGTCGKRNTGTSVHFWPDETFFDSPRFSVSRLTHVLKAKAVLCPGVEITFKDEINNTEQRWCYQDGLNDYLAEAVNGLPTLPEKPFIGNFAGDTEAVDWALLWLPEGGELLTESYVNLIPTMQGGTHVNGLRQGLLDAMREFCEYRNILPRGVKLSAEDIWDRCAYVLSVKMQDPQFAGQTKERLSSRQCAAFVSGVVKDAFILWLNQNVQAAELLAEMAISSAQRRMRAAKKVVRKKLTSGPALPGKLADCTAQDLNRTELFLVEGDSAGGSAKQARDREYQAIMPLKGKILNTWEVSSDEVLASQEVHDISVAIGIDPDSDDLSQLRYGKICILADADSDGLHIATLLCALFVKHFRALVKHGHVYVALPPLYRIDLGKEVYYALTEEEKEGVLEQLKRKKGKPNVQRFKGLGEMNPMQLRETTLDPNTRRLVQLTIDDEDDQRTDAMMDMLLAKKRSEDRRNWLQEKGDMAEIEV
# T1 sequence (P0AFI2 whole entry): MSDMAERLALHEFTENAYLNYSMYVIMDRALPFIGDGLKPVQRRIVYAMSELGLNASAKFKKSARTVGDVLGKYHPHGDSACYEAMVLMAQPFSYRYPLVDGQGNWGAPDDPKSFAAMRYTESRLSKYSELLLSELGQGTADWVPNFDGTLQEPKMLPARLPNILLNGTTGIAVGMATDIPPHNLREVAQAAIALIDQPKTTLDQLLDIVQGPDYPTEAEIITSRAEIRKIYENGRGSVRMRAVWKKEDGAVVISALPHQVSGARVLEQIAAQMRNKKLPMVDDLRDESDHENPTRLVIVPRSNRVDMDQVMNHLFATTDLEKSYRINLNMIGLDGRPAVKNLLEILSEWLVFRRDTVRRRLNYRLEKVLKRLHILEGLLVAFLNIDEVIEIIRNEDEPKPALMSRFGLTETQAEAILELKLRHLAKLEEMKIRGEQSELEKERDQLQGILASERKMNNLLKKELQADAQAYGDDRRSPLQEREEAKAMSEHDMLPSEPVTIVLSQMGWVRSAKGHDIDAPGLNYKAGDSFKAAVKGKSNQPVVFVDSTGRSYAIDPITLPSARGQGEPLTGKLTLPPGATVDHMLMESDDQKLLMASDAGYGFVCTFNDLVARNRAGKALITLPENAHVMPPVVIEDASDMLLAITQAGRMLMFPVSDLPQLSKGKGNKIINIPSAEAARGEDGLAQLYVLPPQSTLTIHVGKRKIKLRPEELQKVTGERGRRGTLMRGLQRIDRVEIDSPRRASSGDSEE
# T2 sequence (P0AES4 whole entry, one chain of several): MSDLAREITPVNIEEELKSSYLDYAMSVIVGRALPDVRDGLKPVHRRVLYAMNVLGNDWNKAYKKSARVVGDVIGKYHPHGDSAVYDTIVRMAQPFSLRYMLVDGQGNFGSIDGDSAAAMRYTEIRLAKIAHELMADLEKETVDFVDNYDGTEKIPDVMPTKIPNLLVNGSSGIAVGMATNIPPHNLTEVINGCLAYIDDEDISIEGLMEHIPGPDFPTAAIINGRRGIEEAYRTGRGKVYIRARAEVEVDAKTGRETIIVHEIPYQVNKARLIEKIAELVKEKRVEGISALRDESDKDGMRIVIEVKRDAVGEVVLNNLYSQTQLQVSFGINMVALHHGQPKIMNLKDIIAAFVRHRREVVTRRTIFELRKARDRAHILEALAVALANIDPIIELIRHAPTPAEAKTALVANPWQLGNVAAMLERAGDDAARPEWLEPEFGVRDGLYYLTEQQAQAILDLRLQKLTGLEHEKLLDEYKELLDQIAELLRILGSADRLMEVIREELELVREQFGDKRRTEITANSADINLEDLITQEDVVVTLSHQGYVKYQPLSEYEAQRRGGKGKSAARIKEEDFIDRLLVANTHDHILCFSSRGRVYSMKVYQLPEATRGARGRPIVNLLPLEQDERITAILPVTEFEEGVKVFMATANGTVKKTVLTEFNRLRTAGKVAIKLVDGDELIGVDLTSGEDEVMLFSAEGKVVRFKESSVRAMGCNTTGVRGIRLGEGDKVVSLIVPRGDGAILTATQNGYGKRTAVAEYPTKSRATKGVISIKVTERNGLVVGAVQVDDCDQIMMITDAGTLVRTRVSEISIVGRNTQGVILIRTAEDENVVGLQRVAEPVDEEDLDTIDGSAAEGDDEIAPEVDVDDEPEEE
SMILES,MIC (Pichia anomala DSM-6766) [µg/mL],MIC [1] [µg/mL],MIC [2] [µg/mL],MIC [3] [µg/mL],MIC [4] [µg/mL],MIC [5] [µg/mL],MIC [6] [µg/mL],MIC [7] [µg/mL],MIC [8] [µg/mL],MIC [9] [µg/mL],MIC (Bacillus subtilis DSM-10) [µg/mL],MIC [10] [µg/mL],MIC [11] [µg/mL],concentration at which E. coli topo IV activity was inhibited (only the highest tested concentration) (E. coli topoisomerase IV) [µM],"IC50 (E. coli gyrase; IC50 gyrase, E. coli gyrase) [µM]",IC50 (E. coli gyrase; [13]) [µM],IC50 (E. coli gyrase; [14]) [µM],other results
"CO[C@H](C(=O)Nc1ccc(C(=O)Nc2ccc(C(=O)Nc3ccc(C(=O)O)cc3OC(C)C)c(O)c2OC(C)C)cc1)[C@H](NC(=O)c1ccc(NC(=O)c2ccc([N+](=O)[O-])cc2)cc1)C(=O)O [cystobactamide A, Cystobactamide A]",> 59,> 59,7.4,0.9,0.5,0.06,> 59,0.9,> 59,0.06,0.12,0.12,14.7,815,6,6,6,"IC50 (E. coli topoisomerase IV; IC50 Topo IV, E. coli topoisomerase IV): ~815 µM; IC50 (E. coli topoisomerase IV; IC50 in the E. coli Topoisomerase IV inhibition assay, averages of three independent experiments): > 160 µM; inhibition of pathogenic Gram-negative strains A. baumannii and P. aeruginosa (MIC range) ([12]; A. baumannii and P. aeruginosa): low μg/ml range; average potency on Gram-positive bacteria compared with ciprofloxacin ([12]; E. faecalis, S. aureus, S. pneumonia, average MIC): exceeded that of ciprofloxacin"
"CC(C)Oc1cc(C(=O)O)ccc1NC(=O)c1ccc(NC(=O)c2ccc(N)cc2)c(OC(C)C)c1O [cystobactamide C, Cystobactamide C]",> 65,65,32.5,8.1,8.1,4.1,> 65,16.3,65,4.1,2,8.1,65,300,7.2,7.2,7.7,"IC50 (E. coli topoisomerase IV; E. coli topoisomerase IV, read-out: IC50 Topo IV): ~300 µM; IC50 (E. coli topoisomerase IV; averages of three independent experiments, read-out: IC50 in the E. coli Topoisomerase IV inhibition assay): > 60 µM; ratios IC50(topo IV)/IC50(gyrase) (E. coli topoisomerase IV; topo IV vs. gyrase): ~42"
